The values below come from ChEMBL document CHEMBL1145715, “Massetolides A-H, antimycobacterial cyclic depsipeptides produced by two pseudomonads isolated from marine habitats” (J Nat Prod, 1997).

Structures are written as SMILES. Values after ≈ are worked out from the molar mass of the structure shown. Active and inactive are the calls of the source. The rule behind the calls is not given here.

Series [1] concerns Mycobacterium tuberculosis. Briefly: Antimycobacterial activity against Mycobacterium tuberculosis by middle-brook 7H10 agar proportion method. In kind it is functional.
Series [2] relates to Mycobacterium avium-intracellulare. The experiment in a line: Antimycobacterial activity against Mycobacterium avium-intracellulare by middle-brook 7H10 agar proportion method. In kind it is functional.
For another series, the system named is Mus musculus. Briefly: Toxicity in mouse at 10 mg/kg, ip. In kind it is organism-based. Details: dose 10 mg/kg, route intraperitoneal. Particulars: in vivo.
In another series the test system is Escherichia coli. The experiment in a line: Antibacterial activity against Escherichia coli by middle-brook 7H10 agar proportion method. The format is functional, organism-based.
A further series concerns Staphylococcus aureus. The experiment in a line: Antibacterial activity against Staphylococcus aureus by middle-brook 7H10 agar proportion method. The format is functional, organism-based.

As for `CCCCCCC[C@H](O)CC(=O)N[C@@H](CC(C)C)C(=O)N[C@H](CCC(=O)O)C(=O)N[C@H]1C(=O)N[C@H]([C@@H](C)CC)C(=O)N[C@@H](CC(C)C)C(=O)N[C@H](CO)C(=O)N[C@@H](CC(C)C)C(=O)N[C@H](CO)C(=O)N[C@@H]([C@@H](C)CC)C(=O)O[C@@H]1C` [MASSETOLIDE A], the figures for the MIC in series [1] and in series [2] were 5 µg/mL (≈ 4.38 µM) and 2.5 µg/mL (≈ 2.19 µM), respectively. In the series with Mus musculus, the Activity result is “Non-toxic”.

Take `CCCCCCC[C@H](O)CC(=O)N[C@@H](CC(C)C)C(=O)N[C@H](CCC(=O)O)C(=O)N[C@H]1C(=O)N[C@H]([C@H](C)CC)C(=O)N[C@@H](CC(C)C)C(=O)N[C@H](CO)C(=O)N[C@@H](CC(C)C)C(=O)N[C@H](CO)C(=O)N[C@@H]([C@H](C)CC)C(=O)O[C@@H]1C`: the outcome in the series on Escherichia coli and with Staphylococcus aureus was inactive.
